Here are results for five molecules from PubChem BioAssay AID2010 (Broad Institute, 2009).

Records with an inconclusive call do not appear. Active and inactive are the calls of the source.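 Rule for the calls: active = fitted IC50 within a set limit above the top dose, meaning light loss from cell killing; inconclusive = flat curve with 30 to 70% effect, or poor fit; inactive = IC50 beyond that set limit.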

The term IC50 denotes the concentration that inhibits the measured activity by half.

This test concerns NIH3T3 viability, ATP luminescence (CellTiter-Glo), 90 h. Description: cytotoxicity toward NIH3T3 fibroblasts, dose response, counter-screen, cell-based, ATP luminescence, mouse fibroblasts (AID 2010).
`Cc1ccccc1OCc1n(CC(=O)OC2CC(C)CCC2C(C)C)c2ccccc2[n+]1C` (stereo not given): the IC50 is > 6 µM (inactive).

Take `O=[N+]([O-])C(/C=C(\Cl)[N+](=O)[O-])=C(N1CCCCC1)N1CCCCC1`: the IC50 was > 6 µM (inactive). With `C#CCOCCOCCOCCNc1nc(N2CCN(C(=O)CCCCCCCCCCNC(=O)Cn3cc(C[C@@H](C)O)nn3)CC2)nc(N2CCN(C(=O)CCCCCCCCCCNC(=O)[C@H](CCCN=C(N)N)n3cc(C[C@@H](C)CC)nn3)CC2)n1`, the IC50 is > 6 µM (inactive). With `CC(C)N1C(=O)/C(=C\c2nc3ccccc3c(=O)n2-c2ccccc2)c2ccccc21`, the IC50 was > 6 µM (inactive).

For the molecule `O=[N+]([O-])C(/C=C(/Cl)[N+](=O)[O-])=C(N1CCCCC1)N1CCCCC1`, the IC50 was > 6 µM (inactive).
